Measured values: patent EP0461043A2, “Enantiomer separation by transesterification” (SEPRACOR, INC., priority 1990, dated 1991)
Where a name gives a salt, the structure may show the parent alone.

Tests used:
[1] = Water solubility; type: physicochemical; details: for water solubility: charged water-soluble reactant esters (salts), values given in M; for solubility in water: esters, values given in mM
[2] = L form relative to D form; cited from earlier work

Structure (SMILES)	water solubility [1]	solubility in water [1]	other results
COc1ccc2cc(C(C)C(=O)OCC[N+](C)(C)C)ccc2c1 (racemic) [choline ester of 2-(6-methoxy-2-naphthyl) propanoic acid]	1610 mM		
CC(C)Cc1ccc(C(C)C(=O)OCC[N+](C)(C)C)cc1 (stereo not drawn) [methyl sulfate salt of N,N,N-trimethylammonium ethyl ester of Ibuprofen]	2180 mM		
CC(C)NCC(O)COc1cccc2ccccc12 (stereo not drawn) [L form of the beta blocker propranolol, propranolol]			times more potent than the D form [2]: 100 times
CC(C)Cc1ccc(C(C)C(=O)O)cc1 (stereo not drawn) [Ibuprofen, 2-(p-isobutylphenyl) propanoic acid, reference compound]			water solubility at room temperature ([1]; acid forms, room temperature, varies with pH): single digit mM range
COCCOC(=O)C(C)c1ccc(CC(C)C)cc1 (stereo not drawn) [methoxy-ethyl ester of Ibuprofen]		approximately 0.18 mM	
CCCCCCCCOC(=O)C(C)Cl (stereo not drawn) [octyl ester of 2-chloropropanoic acid]		about 1.2 mM	
